According to US8247211B2, “Glycopeptide antibiotics” (American Cyanamid Company, priority 2001, dated 2012):
≈ marks a conversion by molar mass, not a printed value.

Columns and labels:
Assay in all cases: In vitro antibacterial evaluation: minimum inhibitory concentration (MIC), broth dilution method
Format in all cases: cell-based
Streptococcus sp. = conditions: broth dilution, 5×10^5 CFU/mL, 18 hours at 35° C.
Protocol: (§1) The minimum inhibitory concentration (MIC), the lowest concentration of the antibiotic which inhibits growth of the test organism, is determined by the broth dilution method using Muller-Hinton II […] (Baltimore Biological Laboratories) following the recommendations of the National Committee for Clinical Laboratory Standards [Methods for dilution antimicrobial susceptibility tests for bacteria that grow aerobically, approved standard M7-A2, National Committee for Clinical Laboratory Standards, Villanova, Pa].
(§2) An inoculum level of 5×10^5 CFU/mL, and a range of antibiotic concentrations (64-0.06 μg/mL) is used. […] The test organisms include a spectrum of Gram-positive bacteria comprised of Staphylococcus sp., Streptococcus sp. and Enterococcus sp. These organisms include recent clinical isolates that are resistant to methicillin, penicillin and/or vancomycin.

Enterococcus sp. = conditions: broth dilution, 5×10^5 CFU/mL, 18 hours at 35° C.
Protocol: as §1, §2

Escherichia coli = conditions: 5×10^5 CFU/mL, 18 hours at 35° C.
Protocol: as §1, §2

Staphylococcus sp. = conditions: for MIC Staphylococcus aureus (ATCC 29213): strain ATCC 29213; for MIC Staphylococcus aureus (GC 1131): strain GC 1131; for MIC Staphylococcus aureus (GC 3051): strain GC 3051; for MIC Staphylococcus aureus (GC 3053): strain GC 3053; for MIC Staphylococcus aureus (GC 4541): strain GC 4541; for MIC Staphylococcus aureus (GC 4542): strain GC 4542; for MIC Staphylococcus aureus (GC 4544): strain GC 4544; for MIC Staphylococcus aureus (GC 4545): strain GC 4545
Protocol: as §1, §2

[1] = broth dilution, 5×10^5 CFU/mL, 18 hours at 35° C.
[2] = broth dilution, 18 hours at 35° C.

For `CC(c1ccccc1)C1NC(=O)CNC(=O)C(CO)NC(=O)C(C(O)C2CNC(=N)N2C2OC(CO)C(O)C(O)C2O)NC(=O)C(C(O)C2CNC(=N)N2)NC(=O)C(Cc2ccc(OC3OC(CO)C(OC4OC5COC(c6ccsc6)OC5C(O)C4O)C(O)C3O)cc2)NC1=O` (stereo not drawn) [Example 133, Cyclo[glycyl-β-methylphenylalanyl-O-[4-O-[4,6-O-(3-thienylmethylene)hexopyranosyl]-hexopyranosyl]tyrosyl-3-(2-iminoimidazolidin-4-yl)seryl-3-(3-hexopyranosyl-2-iminoimidazolidin-4-yl)serylseryl]], the “MIC Streptococcus agalactiae (GC 4564)” value (Streptococcus sp.) was under 0.5 µg/mL, the “MIC Streptococcus pneumoniae (GC 1894)” value (Streptococcus sp.) was under 0.5 µg/mL and the “MIC Streptococcus pneumoniae (GC 4565)” value (Streptococcus sp.) was 4 µg/mL (≈ 2.88 µM). For the same molecule, the “MIC Streptococcus pneumonine (ATCC 6301)” value (Streptococcus sp.) was under 0.5 µg/mL, the “MIC Streptococcus pyogenes (GC 4563)” value (Streptococcus sp.) was under 0.5 µg/mL and the “MIC Enterococccus avium (GC 4558)” value (Enterococcus sp.) was 8 µg/mL (≈ 5.76 µM). For the same molecule, the “MIC Enterococccus faecalis (ATCC 29212)” value (Enterococcus sp.) was 8 µg/mL (≈ 5.76 µM), the “MIC Enterococccus faecalis (GC 2691)” value (Enterococcus sp.) was 8 µg/mL (≈ 5.76 µM) and the “MIC Enterococccus faecalis (GC 3059)” value (Enterococcus sp.) was 8 µg/mL (≈ 5.76 µM). For the same molecule, the “MIC Enterococccus faecalis (GC 4552)” value (Enterococcus sp.) was 8 µg/mL (≈ 5.76 µM), the “MIC Enterococccus faecalis (GC 4553)” value (Enterococcus sp.) was 8 µg/mL (≈ 5.76 µM) and the “MIC Enterococccus faecalis (GC 4554)” value (Enterococcus sp.) was 8 µg/mL (≈ 5.76 µM). The “MIC Enterococccus faecalis (GC 6189)” value (Enterococcus sp.) was 4 µg/mL (≈ 2.88 µM), the “MIC Enterococccus faecium (GC 2243)” value (Enterococcus sp.) was 8 µg/mL (≈ 5.76 µM) and the “MIC Enterococccus faecium (GC 4556)” value (Enterococcus sp.) was 8 µg/mL (≈ 5.76 µM). The “MIC Enterococccus faecium (GC 4557)” value (Enterococcus sp.) was 2 µg/mL (≈ 1.44 µM), the “MIC Enterococcus faecalis (GC 2242)” value (Enterococcus sp.) was 4 µg/mL (≈ 2.88 µM) and the “MIC Escherichia coli (ATCC 25922)” value (Escherichia coli) was 64 µg/mL (≈ 46.1 µM). The “MIC Escherichia coli (GC 4559)” value (Escherichia coli) was 32 µg/mL (≈ 23 µM), the “MIC Escherichia coli (GC 4560)” value (Escherichia coli) was under 0.5 µg/mL and the “MIC Coagulase Negative Staphylococcus (GC 4547)” value (Staphylococcus sp.; [1]) was 1 µg/mL (≈ 0.72 µM). For the same molecule, the “MIC Coagulase Negative Staphylococcus (GC 4548)” value (Staphylococcus sp.; [1]) was under 0.5 µg/mL, the “MIC Coagulase Negative Staphylococcus (GC 4549)” value (Staphylococcus sp.; [1]) was 1 µg/mL (≈ 0.72 µM) and the “MIC Coagulase Negative Staphylococcus (GC 4551)” value (Staphylococcus sp.; [1]) was 1 µg/mL (≈ 0.72 µM). For the same molecule, the “MIC Coagulase Negative Staphylococcus (GC 6257)” value (Staphylococcus sp.; [1]) was 1 µg/mL (≈ 0.72 µM), the “MIC Staphylococcus aureus-SMITH (GC 4543)” value (Staphylococcus sp.; [1]) was 1 µg/mL (≈ 0.72 µM) and the “MIC Staphylococcus haemolyticus (GC 4546)” value (Staphylococcus sp.; [1]) was 1 µg/mL (≈ 0.72 µM). The “MIC Staphylococcus aureus (ATCC 29213)” value (Staphylococcus sp.) was 1 µg/mL (≈ 0.72 µM), the “MIC Staphylococcus aureus (ATCC 29213)” value (Staphylococcus sp.; [2]) was 1 µg/mL (≈ 0.72 µM) and the “MIC Staphylococcus aureus (GC 1131)” value (Staphylococcus sp.) was 2 µg/mL (≈ 1.44 µM). For the same molecule, the “MIC Staphylococcus aureus (GC 1131)” value (Staphylococcus sp.; [2]) was 2 µg/mL (≈ 1.44 µM), the “MIC Staphylococcus aureus (GC 3051)” value (Staphylococcus sp.) was 1 µg/mL (≈ 0.72 µM) and the “MIC Staphylococcus aureus (GC 3051)” value (Staphylococcus sp.; [2]) was 1 µg/mL (≈ 0.72 µM). For the same molecule, the “MIC Staphylococcus aureus (GC 3053)” value (Staphylococcus sp.) was 4 µg/mL (≈ 2.88 µM), the “MIC Staphylococcus aureus (GC 3053)” value (Staphylococcus sp.; [2]) was 4 µg/mL (≈ 2.88 µM) and the “MIC Staphylococcus aureus (GC 4541)” value (Staphylococcus sp.) was 1 µg/mL (≈ 0.72 µM). For the same molecule, the “MIC Staphylococcus aureus (GC 4541)” value (Staphylococcus sp.; [2]) was 1 µg/mL (≈ 0.72 µM), the “MIC Staphylococcus aureus (GC 4542)” value (Staphylococcus sp.) was 2 µg/mL (≈ 1.44 µM) and the “MIC Staphylococcus aureus (GC 4542)” value (Staphylococcus sp.; [2]) was 2 µg/mL (≈ 1.44 µM). For the same molecule, the “MIC Staphylococcus aureus-SMITH (GC 4543)” value (Staphylococcus sp.; strain GC 4543, broth dilution, 18 hours at 35° C.) was 1 µg/mL (≈ 0.72 µM), the “MIC Staphylococcus aureus (GC 4544)” value (Staphylococcus sp.) was 2 µg/mL (≈ 1.44 µM) and the “MIC Staphylococcus aureus (GC 4544)” value (Staphylococcus sp.; [2]) was 2 µg/mL (≈ 1.44 µM). The “MIC Staphylococcus aureus (GC 4545)” value (Staphylococcus sp.) was 1 µg/mL (≈ 0.72 µM), the “MIC Staphylococcus aureus (GC 4545)” value (Staphylococcus sp.; [2]) was 1 µg/mL (≈ 0.72 µM) and the “MIC Staphylococcus haemolyticus (GC 4546)” value (Staphylococcus sp.; strain GC 4546, broth dilution, 18 hours at 35° C.) was 1 µg/mL (≈ 0.72 µM). The “MIC Coagulase Negative Staphylococcus (GC 4547)” value (Staphylococcus sp.; strain GC 4547, broth dilution, 18 hours at 35° C.) was 1 µg/mL (≈ 0.72 µM), the “MIC Coagulase Negative Staphylococcus (GC 4548)” value (Staphylococcus sp.; strain GC 4548, broth dilution, 18 hours at 35° C.) was under 0.5 µg/mL and the “MIC Coagulase Negative Staphylococcus (GC 4549)” value (Staphylococcus sp.; strain GC 4549, broth dilution, 18 hours at 35° C.) was 1 µg/mL (≈ 0.72 µM). The “MIC Coagulase Negative Staphylococcus (GC 4551)” value (Staphylococcus sp.; strain GC 4551, broth dilution, 18 hours at 35° C.) was 1 µg/mL (≈ 0.72 µM) and the “MIC Coagulase Negative Staphylococcus (GC 6257)” value (Staphylococcus sp.; strain GC 6257, broth dilution, 18 hours at 35° C.) was 1 µg/mL (≈ 0.72 µM).
